This is an account of results in patent publication US8507489B2, “Bicyclic triazoles as protein kinase modulators” (SGX Pharmaceuticals, Inc., priority 2006, dated 2013).

Structures can show the parent of a compound that is named as a salt.

One may read the IC50 as the concentration at which inhibition is half-maximal. A higher IC50 goes with weaker potency in that assay.

One assay concerns the target c-MET (Homo sapiens, UniProt P08581). As to the kind of experiment: MET luminescence-based enzyme assay (Kinase-Glo). Format: biochemical. The procedure: The subscript designates positive or negative controls. The Z′ score for a robust screening assay should be ≧0.50. The typical threshold=μ+−3*σ+. Any value that falls below the threshold was designated a “hit”.
MET Luminescence-Based Enzyme Assay
MET kinase (see below), Kinase-Glo™ (Promega Cat#V6712).
Negative controls contained 10 μM staurosporine.
In general terms: Kinase-Glo reads ATP consumption through a luciferase reaction.

The subject of a further assay is GTL16 cells. As to the kind of experiment: 96-well XTT cell survival assay (GTL16 cells). Type of assay: cell-based. The note with it: Homo sapiens, GTL 16, 72 hours. The procedure:
GTL16 cells were maintained in DMEM Medium supplemented with 10% fetal bovine serum (FBS) 2 mM L-Glutamine and 100 units penicillin/100 μg streptomycin, at 37° C. in 5% CO2.
Compounds were tested in the following assays in duplicate.
96-well XTT assay (GTL16 cells): One day prior to assay the growth media was aspirated off and assay media was added to cells. On the day of the assay, the cells were grown in assay media containing various concentrations of compounds (duplicates) on a 96-well flat bottom plate for 72 hours at 37° C. in 5% CO2. The starting cell number was 5000 cells per well and volume was 120 μl. At the end of the 72-hour incubation, 40 μl of XTT labeling mixture (50:1 solution of sodium 3′-[1-(phenylaminocarbonyl)-3,4-tetrazolium]-bis (4-methoxy-6-nitro) benzene sulfonic acid hydrate and Electron-coupling reagent: PMS (N-methyl dibenzopyrazine methyl sulfate) were added to each well of the plate. After an additional 5 hours of incubation at 37° C., the absorbance reading at 450 nm with a background correction of 650 nm was measured with a spectrophotometer.
For orientation: Tetrazolium dyes change colour on reduction, which living cells bring about.

Chain of c-MET (P08581 1078-1345 limits assumed): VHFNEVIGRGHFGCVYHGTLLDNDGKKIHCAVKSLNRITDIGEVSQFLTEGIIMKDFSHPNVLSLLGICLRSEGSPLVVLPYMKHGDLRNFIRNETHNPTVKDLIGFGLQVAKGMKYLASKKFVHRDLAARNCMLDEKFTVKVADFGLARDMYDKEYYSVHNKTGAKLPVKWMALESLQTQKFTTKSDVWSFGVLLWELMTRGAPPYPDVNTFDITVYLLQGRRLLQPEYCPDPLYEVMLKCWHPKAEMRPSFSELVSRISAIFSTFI

On to `Cc1cc2ncccc2cc1Sc1nnc2ccc(-c3cnn(C)c3)nn12` [Compound 16, 7-Methyl-6-[6-(1-methyl-1H-pyrazol-4-yl)-[1,2,4]triazolo[4,3-b]pyridazin-3-ylsulfanyl]-quinoline], for which the results for the IC50 on c-MET and with GTL16 cells were less than 100 nM and no more than 100 nM, respectively.
On to `CCN1CC(Cn2cc(-c3cnc4ccc(Sc5nnc6ccc(C)nn56)cc4c3)cn2)C1` [Compound 67, 3-[1-(1-Ethyl-azetidin-3-ylmethyl)-1H-pyrazol-4-yl]-6-(6-methyl-[1,2,4]triazolo[4,3-b]pyridazin-3-ylsulfanyl)-quinoline], for which the results for the IC50 against c-MET and with GTL16 cells were less than 100 nM and no more than 100 nM, respectively.
As to `COc1ccnc2ccc(Sc3nnc4ccc(-c5cnn(C)c5)nn34)cc12` [Compound 26, 4-Methoxy-6-[6-(1-methyl-1H-pyrazol-4-yl)-[1,2,4]triazolo[4,3-b]pyridazin-3-ylsulfanyl]-quinoline], the IC50 at c-MET is less than 100 nM; with GTL16 cells it was no more than 100 nM.
With `CNc1ccc2nnc(Sc3ccc4ncc(-c5cnn(C)c5)cc4c3)n2n1` [Compound 68, Methyl-{3-[3-(1-methyl-1H-pyrazol-4-yl)-quinolin-6-ylsulfanyl]-[1,2,4]triazolo[4,3-b]pyridazin-6-yl}-amine], the values for the IC50 against c-MET and with GTL16 cells were less than 100 nM and no more than 100 nM, respectively.
Take `Cn1cc(-c2ccc3nnc(Sc4ccc5ncc(N)cc5c4)n3n2)cn1` [Compound 33, 6-[6-(1-Methyl-1H-pyrazol-4-yl)-[1,2,4]triazolo[4,3-b]pyridazin-3-ylsulfanyl]-quinolin-3-ylamine, trifluoroacetic acid salt]: the half-maximal inhibitory concentration (IC50) against c-MET is less than 100 nM; in the assay with GTL16 cells it was no more than 100 nM.
For the molecule `Cn1cc(-c2ccc3nnc(Sc4ccc5ncsc5c4)n3n2)cn1` [Compound 14, 3-(Benzothiazol-6-ylsulfanyl)-6-(1-methyl-1H-pyrazol-4-yl)-[1,2,4]triazolo[4,3-b]pyridazine], the values for the IC50 against c-MET and in the assay on GTL16 cells were less than 100 nM and no more than 100 nM, respectively.
On the same counts, the results for `Cn1cc(-c2cnc3ccc(Sc4nnc5ccc(-c6cnn(C)c6)nn45)cc3c2)cn1` [Compound 40, 3-(1-Methyl-1H-pyrazol-4-yl)-6-[6-(1-methyl-1H-pyrazol-4-yl)-[1,2,4]triazolo[4,3-b]pyridazin-3-ylsulfanyl]-quinoline] are less than 100 nM and no more than 100 nM.
On to `CCn1cnc2ccc(Sc3nnc4ccc(-c5cnn(C)c5)nn34)cc21` [Compound 30, 3-(3-Ethyl-3H-benzoimidazol-5-ylsulfanyl)-6-(1-methyl-1H-pyrazol-4-yl)-[1,2,4]triazolo[4,3-b]pyridazine], for which the IC50 on c-MET is less than 100 nM; in the assay with GTL16 cells it was no more than 100 nM.
For `Cc1ccc2nnc(Sc3ccc4ncc(-c5cnn(C6CN(C)C6)c5)cc4c3)n2n1` [Compound 63, 3-[1-(1-Methyl-azetidin-3-yl)-1H-pyrazol-4-yl]-6-(6-methyl-[1,2,4]triazolo[4,3-b]pyridazin-3-ylsulfanyl)-quinoline], the results for the IC50 at c-MET and in the assay on GTL16 cells were less than 100 nM and no more than 100 nM, respectively.
